Results from publication PMC8945229, “Development and Biological Characterization of a Novel Selective TrkA Agonist with Neuroprotective Properties against Amyloid Toxicity” (Biomedicines, 2022).

Key:
Erk1/2 = Erk1/2 phosphorylation in PC12 cells (Western blot); format: cell-based
Experimental: For immunoprecipitation experiments PC12 or HEK293T, cells were used when at 70–80% confluent. Cells were starved of serum for 4 h and subsequently treated with 100 ng/mL NGF or 500 nM of compound ENT-A013 for 30′. Cells were then lysed in Pierce™ IP Lysis Buffer (87788, Thermo Fischer Scientific, Waltham, MA, USA) containing proteases (539138, Calbiochem, Darmstadt, Germany) and phosphatase inhibitors (524629, Calbiochem, Darmstadt, Germany). Lysates were then immunoprecipitated overnight at 4 °C with TrkA antibody (1:100, 06-574, Sigma-Aldrich, St. Louis, MO, USA) (Table S1) or p75^NTR antibody (1:100, ab6172, Abcam plc., Cambridge, UK) followed by 4 h incubation with protein G-plus agarose beads (sc-2002, Santa Cruz Biotechnology, Inc., Dallas, TX, USA). Beads were then collected, washed 3X with lysis buffer, resuspended in SDS loading buffer and subjected to Western blot against phosphorylated Tyrosine (1:1000, BAM1676, R&D Systems, Inc., Minneapolis, MN, USA) or Traf6 antibody (1:2000, ab33915, Abcam, plc., Cambridge, UK). Whole cell lysates were subjected to Western blot against TrkA (1:1000, 06-574, Sigma-Aldrich, St. Louis, MO, USA), phosphorylated TrkB (1:1000, ABN1381, Sigma-Aldrich, St. Louis, MO, USA), phosphorylated TrkC (1:1000, STJ90960, St John’s Laboratory, Ltd., London, UK), TrkB (1:1000, 07-225-I, Sigma-Aldrich, St. Louis, MO, USA), TrkC (1:1000, C44H5, Cell Signaling Technology, Danvers, MA, USA), p75 (1:1000, 839701, Biolegend, Inc., San Diego, CA, USA), Traf6 (1:2000, ab33915, Abcam, plc., Cambridge, UK) phosphorylated Akt (1:1000, 9721S, Cell Signaling Technology, Danvers, MA, USA), phosphorylated Erk1/2 (1:1000, 9101S, Cell Signaling Technology, Danvers, MA, USA), total Akt (1:1000, 4691S Cell Signaling Technology, Danvers, MA, USA) and total Erk1/2 (1:1000, 4695S, Cell Signaling Technology, Danvers, MA, USA).

TrkB = biological target: T1, TrkB (Homo sapiens, UniProt Q16620); experiment: TrkB phosphorylation in NIH-3T3 cells stably transfected with TrkB; format: cell-based; conditions: 500 nM, 30′
T1 construct: expressed in transfected cells
Experimental: PC12 and HEK293T cells were obtained from LGC Promochem GmbH (Teddington, UK) and cultured under the conditions specified by the manufacturer. NIH3T3 cells were stably transfected with human TrkB plasmid. PC12 cells were grown in DMEM medium (11965084, Gibco, Grand Island, NY, USA) containing 10% Horse Serum (16050122, Gibco, Grand Island, NY, USA), 5% Fetal Bovine Serum (10270106, Gibco, Grand Island, NY, USA), 100 units/mL Penicillin and 0.1 mg/mL Streptomycin (15140122, Gibco, Grand Island, NY, USA) at 5% CO2 and 37 °C. Cells were used between passages 5–20. HEK293T and NIH3T3 cells were grown in the same medium as PC12 cells supplemented with 10% Fetal Bovine Serum and lacking Horse Serum. For transient transfection of HEK293T cells, lipofectamine was used and cells were transfected with human p75^NTR and Traf6 plasmids. To determine the intracellular activity of endogenous secretases, we tagged (tGFP) a truncated mutant (Tm) of APP containing the original amino acids sequence from M516 to N773. This Tm conserves the secretases cleavage sites, clathrin binding site, tau protein binding site, collagen binding site and some glycosylation sites critical for protein localization and intracellular trafficking. The cDNA of the TmAPP gene was amplified by PCR and subcloned into pturbo-GFP vector. […]

[1] = tested on: Primary Dorsal Root Ganglia (DRG) neurons; experiment: TUNEL assay in primary DRG neurons upon NGF withdrawal; format: cell-based, mouse; conditions: 500 nM every 24 h, 48 h, NGF-neutralizing antibody
Experimental: Primary Dorsal Root Ganglia (DRG) neurons were isolated from P0-P1 mouse pups (C57BL/6J, The Jackson Laboratory, Bar Harbor, ME, USA) as described previously and cultured with Neurobasal medium (21103049 Gibco, Grand Island, NY, USA) containing 2% B27 (17504044, Gibco, Grand Island, NY, USA), 100 ng/mL NGF (N-100, Alomone Labs, Jerusalem, Israel), 1X GlutaMax (35050061, Gibco, Grand Island, NY, USA), 10 mM HEPES (15630080, Gibco, Grand Island, NY, USA), 1% Penicillin/Streptomycin (15070063, Gibco, Grand Island, NY, USA) and 10 μM 5-Fluoro-2′-deoxyuridine (343333, Calbiochem, Darmstadt, Germany). For TUNEL assay, cells were cultured for 14 days in vitro and then the medium was deprived of NGF before adding ENT-A013 (500 nM, every 24 h) along with NGF-neutralizing antibody (N8773, 1:500, Sigma-Aldrich, St. Louis, MO, USA). Cells were then incubated for 48 h before being fixed with 4% PFA and labelled with TUNEL (11684795910, F. Hoffmann–La Roche Ltd., Basel, Switzerland) following the manufacturer’s protocol. Subsequently, cells were immunostained against Tuj1 (1:2000, 801201, Biolegend, Inc., San Diego, CA, USA) and anti-mouse Cy3 (1:1000, Invitrogen, A10521, Waltham, MA, USA) and imaged with a Leica SP8 confocal microscope. […] Cells were then imaged by confocal microscopy and neurite length was measured using Fiji software (NIH, Bethesda, Maryland, USA).

Akt = Akt phosphorylation in PC12 cells (Western blot); format: cell-based; design: unit not given here; conditions: 500 nM, 30′
Experimental: For immunoprecipitation experiments PC12 or HEK293T, cells were used when at 70–80% confluent. Cells were starved of serum for 4 h and subsequently treated with 100 ng/mL NGF or 500 nM of compound ENT-A013 for 30′. Cells were then lysed in Pierce™ IP Lysis Buffer (87788, Thermo Fischer Scientific, Waltham, MA, USA) containing proteases (539138, Calbiochem, Darmstadt, Germany) and phosphatase inhibitors (524629, Calbiochem, Darmstadt, Germany). Lysates were then immunoprecipitated overnight at 4 °C with TrkA antibody (1:100, 06-574, Sigma-Aldrich, St. Louis, MO, USA) (Table S1) or p75^NTR antibody (1:100, ab6172, Abcam plc., Cambridge, UK) followed by 4 h incubation with protein G-plus agarose beads (sc-2002, Santa Cruz Biotechnology, Inc., Dallas, TX, USA). Beads were then collected, washed 3X with lysis buffer, resuspended in SDS loading buffer and subjected to Western blot against phosphorylated Tyrosine (1:1000, BAM1676, R&D Systems, Inc., Minneapolis, MN, USA) or Traf6 antibody (1:2000, ab33915, Abcam, plc., Cambridge, UK). […]

T1 sequence (Q16620 32-822): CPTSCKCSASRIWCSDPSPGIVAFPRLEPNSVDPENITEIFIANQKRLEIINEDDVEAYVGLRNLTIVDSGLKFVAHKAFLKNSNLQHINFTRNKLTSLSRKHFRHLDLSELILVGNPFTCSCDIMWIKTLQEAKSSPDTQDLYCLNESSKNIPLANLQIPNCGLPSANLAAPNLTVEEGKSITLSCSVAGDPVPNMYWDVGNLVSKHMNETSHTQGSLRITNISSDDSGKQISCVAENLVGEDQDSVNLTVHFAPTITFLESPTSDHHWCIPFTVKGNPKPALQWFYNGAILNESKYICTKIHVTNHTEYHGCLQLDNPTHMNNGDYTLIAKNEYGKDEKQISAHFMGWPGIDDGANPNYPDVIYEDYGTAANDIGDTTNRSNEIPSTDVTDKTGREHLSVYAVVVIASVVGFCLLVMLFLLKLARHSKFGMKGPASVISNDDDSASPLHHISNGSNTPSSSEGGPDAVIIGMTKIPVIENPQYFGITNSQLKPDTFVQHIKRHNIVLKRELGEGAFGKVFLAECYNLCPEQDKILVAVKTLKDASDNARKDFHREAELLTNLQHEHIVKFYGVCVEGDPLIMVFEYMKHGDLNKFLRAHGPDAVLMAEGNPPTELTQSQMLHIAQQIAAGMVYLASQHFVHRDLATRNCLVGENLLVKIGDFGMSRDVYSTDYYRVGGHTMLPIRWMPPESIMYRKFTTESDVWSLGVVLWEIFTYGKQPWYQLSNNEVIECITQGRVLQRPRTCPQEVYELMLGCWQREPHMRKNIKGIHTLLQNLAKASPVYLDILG

SMILES: CC12CCC(O)CC1=CCC1C2CCC2(C)C1CCC21CC1C=CBr [ENT-A013, (2′R,3S,17S)-2′-(2-Bromovinyl)-5-Androstene-17,1′-Cyclopropan-3-ol]
- time Erk1/2 phosphorylation is sustained after treatment (Erk1/2): up to 1 hr
- Erk1/2 phosphorylation (Erk1/2; 500 nM, 30′): 2.5 ± 0.6 % of control FC
- TrkB phosphorylation (in words) (TrkB): did not induce phosphorylation
- NGF deprivation-induced apoptosis (TUNEL, in words) [1]: significantly reverse the NGF deprivation-induced apoptosis
- Akt phosphorylation (Akt): 3.8 ± 1.15
